How the values were obtained:
[1] = test system: spared nerve injury (SNI) model of neuropathic pain in rats; assay: Mechanical threshold (von Frey) to hindpaw withdrawal in spared nerve injury (SNI) rats; format: in vivo, rat; conditions: for effect of agonist alone on latency to hindpaw withdrawal (mechanical): 100 μg intrathecal; for effect on behavioral signs of neuropathic pain (mechanical threshold / latency to hindpaw withdrawal): dose series
Description: (§1) Male Sprague-Dawley rats (Charles Rivers Laboratories, Inc) were used, and weighed 280-320 g at the time of surgery and intrathecal catheter implantation, and 340-380 g during pharmacological testing. Animals were housed in individual cages on a 12-hour light/dark cycle starting at 6 a.m., and were given food and water […]. All animal use protocols were approved by the Institutional Animal Care and Use Committee (IACUC) of Tulane University.
(§2) Neuropathic pain was modeled in rats using the spared nerve injury model (“SNI”), which is widely accepted as a model for neuropathic pain. To produce the model, rats were anesthetized with isoflurane (5% induction, then 1.5% maintenance in oxygen). As previously described, an incision was made in the skin at the level of the trifurcation of the left sciatic nerve (Decosterd et al., 2000). The overlying muscles were retracted, exposing the common peroneal, tibial, and sural nerves. The common peroneal and tibial nerves were ligated with 6-0 silk (Ethicon, Somerville, N.J.), and then the knot and adjacent nerve (2 mm) were transected. Care was taken to avoid touching the sural nerve branch. The muscle was then sutured with 4-0 absorbable sutures (Ethicon) and the wound was closed with metal clips.
(§3) At the time of nerve injury, animals were re-anesthetized with isoflurane (Baxter, Deerfield, Ill.), and then placed in a stereotaxic apparatus (Stoelting, Wood Dale, Ill.). As previously described (Malkmus et al., 2004), rats were implanted with polyethylene-10 (PE-10, Clay Adams, Sparks, Md.) intrathecal catheters. Briefly, the animal's head was flexed forward in the stereotaxic apparatus, an incision was made in the skin at the back of the head and neck, and the cisternal membrane was exposed by sharp dissection. The membrane was gently punctured with the tip of a #15 scalpel blade, and the distal end of a 7.5 cm long PE-10 catheter was passed through the opening in the cisternal membrane, into the intrathecal space. The catheter was loosely sutured to subcutaneous tissue, leaving the proximal end external to the animal and accessible to the experimenter, and the skin was then approximated using 4-0 absorbable sutures (Ethicon).
(§4) Following surgery, rats were allowed 7 days to recover prior to drug administration and experimentation. To minimize any effects of animal handling on experimental data, drugs and vehicle (saline, or saline and DMSO) were administered via remote injection. PE-10 tubing, filled with vehicle or drug, was used to connect a Hamilton microsyringe to a 30-gauge microinjector, through which 15-20 μL of vehicle or drug was delivered to the lumbar region of the spinal cord via the intrathecal catheter. Progress of the injection was visually confirmed by observing the movement of a small air bubble within the PE-10 tubing. Injectors were left in place an additional minute after fluid delivery, to minimize backflow within the catheter, and animals were then returned to the testing box.
(§5) All drug solutions were freshly prepared daily. After evaporating methyl acetate solvent under a gentle nitrogen stream, 15-deoxy-Δ^12,14 PGJ2 was reconstituted in isotonic saline (comprising 0.9% sodium chloride in water, also called “normal saline”). Rosiglitazone was diluted to the concentrations indicated in the FIGS. with a solution of 30% dimethylsulfoxide (DMSO) and 70% isotonic saline. 15-deoxy-Δ^12,14 PGJ2, rosiglitazone, BADGE, and DMSO were all obtained from Cayman Chemicals (Ann Arbor, Mich.). As used herein, the term “vehicle” refers to the solvent used to dilute the drugs, and may comprise without limitation, DMSO, saline, and water.
(§6) Data are presented as mean±standard error of the mean (SEM). Differences between means were analyzed by two-way repeated-measures analysis of variance (ANOVA), with drug treatment as the between-subjects variable and time as the repeated measure. […]

SNI rats = conditions: rat, in vivo
[2] = test system: spared nerve injury (SNI) model of neuropathic pain in rats; assay: Cold allodynia (acetone drop, paw withdrawal duration) in SNI rats; format: in vivo, rat
Description: as §1, §2, §3, §4, §5, §6

[3] = test system: spared nerve injury (SNI) model of neuropathic pain in mice; assay: Mechanical threshold (von Frey) to hindpaw withdrawal in SNI mice; format: in vivo, mouse; conditions: intrathecal
Protocol: (§7) Male CD1 mice (Charles Rivers Laboratories, Inc) were used, and weighed 18-22 g at the time of surgery, and 29-32 g during pharmacological testing. To produce the SNI model in mice, surgical procedures essentially identical to those used in rat were used. Unlike the rat SNI model, where an indwelling catheter was inserted surgically, vehicle or drugs were injected directly into the intrathecal space of the unanesthetized mouse using the classical method of Hylden and Wilcox (“Intrathecal morphine in mice: a new technique” Eur. J. Pharmacol. 17:313-6, 1980) to administer drugs to the intrathecal space dorsal to but not within the spinal cord. Briefly, a piece of cloth was used to restrain the mouse by cradling the iliac crest between one's thumb and forefinger. The L5-L6 spinal bones were located, and a 0.5 inch 30G hypodermic needle was inserted perpendicularly into the L4-L5 interspinous space. Upon insertion, the needle was angled about 30°-45° from the coronal (frontal) plane, and then advanced slightly. The needle angle was then adjusted gently, until paw or tail movement was evoked, whereupon the needle was held in position and 5 μL of saline or drug was administered via a 25 μL Hamilton syringe.
(§8) Data are presented as mean±standard error of the mean (SEM). Differences between means were analyzed by two-way repeated-measures analysis of variance (ANOVA), with drug treatment as the between-subjects variable and time as the repeated measure. If statistically significant differences (p<0.05) were detected, the analyses were followed by post hoc t-tests.
(§9) The procedures used to evaluate behavioral signs of mechanical and cold allodynia were essentially the same for rats as they were for mice. Animals were acclimated to a stainless steel grid within individual Plexiglas boxes for 30-60 minutes, and then tested for mechanical allodynia and cold allodynia. In all animals, mechanical allodynia was assessed using von Frey (VF) filaments (Stoelting, Inc), and was done before assessing cold allodynia.
To assess mechanical allodynia, the plantar region of each hind paw was stimulated with an incremental series of 8 different VF hairs (monofilaments of logarithmically varying stiffness). In SNI rats and mice, the stimulus region was localized to the sural innervation territory of the lateral aspect of the plantar hind paw. The 50% withdrawal threshold (“mechanical” threshold) was determined using the up-down method of Dixon, modified by Chaplan et al. (Chaplan et al., 1994). First, an intermediate von Frey monofilament (e.g., for rats, number 4.31 was used, which exerts a force of 2.0 g) was applied perpendicular to the plantar skin, causing a slight bending of the hair. […]

[4] = test system: spared nerve injury (SNI) model of neuropathic pain in mice; assay: Cold allodynia (acetone drop, paw withdrawal duration) in SNI mice; format: in vivo, mouse; conditions: intrathecal
Protocol: as §7, §8, §9
Cold allodynia was evaluated by applying a drop of acetone to the plantar paw of control and SNI rats. Acetone was applied via a syringe connected to PE-90 tubing, flared at the tip to a diameter of 3.5 mm. Surface tension maintained the volume of the drop to 10-12 μL. The length of time the animal lifted or shook its paw was recorded. The duration of paw withdrawal was recorded for 30 seconds, and three observations were averaged. […] In such cases acetone testing was either terminated, or that data was not included in the final analysis.

[5] = Heneka et al. 2005; Maeshiba et al. 1997; cited from earlier work
[6] = test system: animals subjected to sham SNI surgery; assay: Sensory thresholds (mechanical, cold, infrared heat) in rats subjected to sham SNI surgery; format: in vivo, rat; conditions: p>0.05
Protocol: as §9
To assess mechanical allodynia, the plantar region of each hind paw was stimulated with an incremental series of 8 different VF hairs (monofilaments of logarithmically varying stiffness). In SNI rats and mice, the stimulus region was localized to the sural innervation territory of the lateral aspect of the plantar hind paw. The 50% withdrawal threshold (“mechanical” threshold) was determined using the up-down method of Dixon, modified by Chaplan et al. (Chaplan et al., 1994). First, an intermediate von Frey monofilament (e.g., for rats, number 4.31 was used, which exerts a force of 2.0 g) was applied perpendicular to the plantar skin, causing a slight bending of the hair. In the event of a positive response (defined as rapid withdrawal of the paw within 6 seconds), a smaller filament was tested. In the event of a negative response, a larger filament was tested. The mechanical threshold is the smallest amount of force required to evoke a positive response. […] In such cases von Frey testing was either terminated, or that data was not included in the final analysis.
Cold allodynia was evaluated by applying a drop of acetone to the plantar paw of control and SNI rats. Acetone was applied via a syringe connected to PE-90 tubing, flared at the tip to a diameter of 3.5 mm. Surface tension maintained the volume of the drop to 10-12 μL. The length of time the animal lifted or shook its paw was recorded. The duration of paw withdrawal was recorded for 30 seconds, and three observations were averaged. […]
(§10) To assess more subtle behavioral effects, we evaluated the effects of rosiglitazone on motor coordination and sensory thresholds in uninjured rats.

[7] = test system: animals subjected to sham SNI surgery; assay: Accelerating rotarod test of motor coordination in sham SNI rats; format: in vivo, rat
Protocol: To evaluate the effect of PPARγ agonists on proprioceptive function, rats were placed on an accelerating rotarod (Stoelting, Wood Dale, III). The rotating rod was subdivided into four compartments for the simultaneous assessment of four animals. Initially rotating at a rate of 4 rpm, the system was adjusted gradually over 10 minutes to a maximum speed of 40 rpm. The time that a rat remained on the rotating rod without falling off was recorded—the rotarod duration. After sham SNI surgery and one day before testing, animals were acclimated to the rotarod for 5-10 trials, yielding average latencies of approximately 3 minutes. On the day of testing, rotarod duration was measured three times prior to drug or vehicle administration, and the times averaged. After drug administration, rotarod duration was measured in triplicate at 60 and 120 minutes from the time of administration, with durations averaged for each time point.
as §10

## CCCCC/C=C/C=C1/C(=O)C=C[C@@H]1CC=CCCCC(=O)O (stereo in doubt) [15-deoxy-Δ^12,14 PGJ2, (Z)-7-[(1S,5E)-5-[(E)-oct-2-enylidene]-4-oxo-1-cyclopent-2-enyl]hept-5-enoic acid]
[1]; SNI rats
  effect of agonist alone on latency to hindpaw withdrawal (mechanical): increased latency to hindpaw withdrawal
[1]; intrathecal, SNI rats
  dissipation of analgesic effect (mechanical threshold): dissipated after four hours
  onset of analgesic effect after injection (mechanical threshold): ≤ 30 min
  time of peak analgesic effect after injection (mechanical threshold): about 60 minutes
  effect on behavioral signs of neuropathic pain (mechanical threshold / latency to hindpaw withdrawal): reduced behavioral signs of neuropathic pain
[1]; intrathecal, SNI rats, 60 minutes after injection
  ED50, log dose-response curve, mechanical threshold (hindpaw withdrawal): 73.97 μg
SNI rats
  gross behavioral changes or other obvious deleterious effects: neither 15-deoxy-Δ^12,14 PGJ2 nor rosiglitazone produced gross behavioral changes or other obvious deleterious effects

## CC(C)(c1ccc(OCC2CO2)cc1)c1ccc(OCC2CO2)cc1 (stereo not shown) [BADGE, bisphenol A diglycidyl ether]
[1]; administered alone, SNI rats
  effect of antagonist administered alone on hindpaw withdrawal latency: did not have a significant effect on hindpaw withdrawal latency
[1]; intrathecal co-administration with 100 μg 15-deoxy-Δ^12,14 PGJ2, 60 minutes after injection, SNI rats
  ED50, log dose-response curve, block of 15-deoxy-Δ^12,14 PGJ2-induced elevation of mechanical threshold: 11.44 μg
[1]; intrathecal co-administration with 100 μg 15-deoxy-Δ^12,14 PGJ2, SNI rats
  effect of co-administered antagonist on analgesic effects of 15-deoxy-Δ^12,14 PGJ2 (mechanical threshold): eliminated the analgesic effects of 15-deoxy-Δ^12,14 PGJ2
[1]; intrathecal co-administration with 100 μg rosiglitazone, SNI rats
  effect of co-administered antagonist on rosiglitazone analgesia (mechanical hypersensitivity): eliminated the analgesic effects of 100 μg rosiglitazone on mechanical hypersensitivity in a dose-dependent manner
[2]; intrathecal co-administration with 100 μg rosiglitazone
  effect of co-administered antagonist on rosiglitazone analgesia (cold hypersensitivity): dose-dependently eliminated the analgesic effects of rosiglitazone

## CCc1ccc(CCOc2ccc(CC3SC(=O)NC3=O)cc2)nc1 (stereo not shown) [pioglitazone, 5-[[4-[2-(5-ethylpyridin-2-yl)ethoxy]phenyl]methyl]thiazolidine-2,4-dione]
[3]; 150 μg dose
  onset of anti-allodynic effect after injection (mechanical threshold): ≤ 30 min
  time after which anti-allodynic effect dissipated (mechanical threshold): 90 min
  time of peak anti-allodynic effect after injection (mechanical threshold): 30 min
[3]; dose series
  effect on behavioral signs of neuropathic pain (threshold to hindpaw withdrawal, von Frey): reduced behavioral signs of neuropathic pain in a dose-dependent and reversible manner
[4]
  onset of analgesic effects after injection (cold allodynia): ≤ 30 min
  time of most pronounced analgesic effects (cold allodynia): approximately 60 minutes
  time within which analgesic effects began to dissipate (cold allodynia): ≤ 90 min
[4]; dose series
  effect on cold hypersensitivity (paw withdrawal duration after acetone): decreased cold hypersensitivity in a dose-dependent and reversible manner
[5]
  ability to cross the blood brain barrier: can cross the blood brain barrier

## CN(CCOc1ccc(CC2SC(=O)NC2=O)cc1)c1ccccn1 (stereo not shown) [rosiglitazone, 5-[[4-[2-(methyl-pyridin-2-yl-amino)ethoxy]phenyl]methyl]thiazolidine-2,4-dione]
[1]; SNI rats
  effect of agonist alone on latency to hindpaw withdrawal (mechanical): reduced behavioral signs of neuropathic pain in a reversible manner
[1]; intrathecal, SNI rats
  dissipation of analgesic effect (mechanical threshold): dissipated after four hours
  onset of analgesic effect after injection (mechanical threshold): ≤ 30 min
  time of peak analgesic effect after injection (mechanical threshold): about 90 minutes
  effect on behavioral signs of neuropathic pain (mechanical threshold / latency to hindpaw withdrawal): reduced behavioral signs of neuropathic pain in a dose-dependent and reversible manner
[2]; 100 μg intrathecal
  effect of agonist alone on cold hypersensitivity: decreased cold hypersensitivity in a reversible manner
[2]; intrathecal
  dissipation of analgesic effects (cold allodynia): dissipated after four hours
  onset of analgesic effects after injection (cold allodynia): ≤ 30 min
  time of most pronounced analgesic effects (cold allodynia): approximately 90 minutes
[2]; intrathecal, dose series
  effect on cold hypersensitivity (paw withdrawal duration after acetone): decreased cold hypersensitivity in a dose-dependent and reversible manner
[6]
  effect on cold response: does not affect
  effect on latency to paw withdrawal response to an infrared heat (IR) stimulus: does not affect
  effect on mechanical threshold: does not affect
[7]; 1000 μg
  effect on motor coordination (rotarod), supra-maximal dose: reduced motor coordination, but this effect was small, not statistically significant
[7]; p>0.05
  effect on motor coordination (rotarod): does not affect
SNI rats
  gross behavioral changes or other obvious deleterious effects: neither 15-deoxy-Δ^12,14 PGJ2 nor rosiglitazone produced gross behavioral changes or other obvious deleterious effects

— US20070249561A1, “Pharmacological method for treatment of neuropathic pain” (priority 2006, published 2007)
